# Values quoted from earlier work, collected in patent publication US20260240758A1, “INJECTABLE PHENYLEPHRINE COMPOSITIONS” (Hikma Pharmaceuticals USA Inc., priority 2022, published 2026).
# Conditions: phenylephrine HCl 400 μg/ml and 200 μg/ml, PVC bags, 60 days at room temperature
smiles,measurement,value
CNC[C@H](O)c1cccc(O)c1 [phenylephrine],phenylephrine degraded,4-5%
